Measurements from US6455516B1, “Method and compounds for use in the treatment of steroid induced states of the central nervous system” (priority 1998, dated 2002).
Entries after “also recorded” stand apart in the source; their conditions may differ.

Key:
[1] = tested on: slices from hippocampal CA1 region; experiment: Hippocampus slice in vitro model: induced population spike (POPSP) over the synapse in area CA1; type: cell-based, rat; settings: for Blocking of the effect of 3alpha-hydroxy-5alpha-pregnan-20-one on the signal/POPSP / Blocking of the effect of 3alpha-hydroxy-5beta-pregnan-20-one on the signal/POPSP: given simultaneously, equimolar dose in the nM range; for Effect on the signal transmitted over the synapse / amplitude of the POPSP: steroid alone
Source text: In another preliminary study, the hippocampus slice model in the female rat of the luteal phase was used. This corresponds to the phase in humans when most of CNS effects are noticed in women with epilepsy and premenstrual syndrome.
In the hippocampus slice in vitro model the effect of steroids on an electrical signal over the synapse in the area CA1 was investigated. The stimulation is on one side of the synapse and a measurement of the response is made on the other side. A small droplet containing the steroid can be placed on top of the synapse and thus influence the synaptic transmission. Secondly a steroid can also be dissolved in the nutrient fluid perfusing the hippocampous slice. The steroid in the perfusion will influence the whole slice including the synapse under investigation.

[2] = Steroids tested by the inventors as agonist, blocker or antagonist to the sedative steroids (method not given)
Sprague-Dawley rats [3] = experiment: EEG-threshold method for deep anaesthesia ("silent second"), continuous intravenous infusion; type: in vivo, rat; settings: for Intercept of regression line (anaesthetic steroid dosage needed for SS at zero 3beta-hydroxy-5alpha-pregnan-20-one): FIG. 1 / FIG. 2; for Optimal dose rate (gives the lowest threshold dose): rats
Procedure: The present invention is based on experiments in vivo, performed to confirm the blocking effect of 3beta-hydroxy-5alpha-pregnan-20-one on 3alpha-hydroxy-5alpha-pregnan-20-one in a preliminary study. 3alpha-hydroxy-5alpha-pregnan-20-one dissolved in 20% cyclodextrin was given to male Sprague-Dawley rats in an i.v. infusion dose rate of close to 3.0 mg/kg/min. This is the optimal dose rate for 3alpha-hydroxy-5alpha-pregnan-20-one. 3alpha-hydroxy-5alpha-pregnan-20-one and 3beta-hydroxy-5alpha-pregnan-20-one were dissolved, 50/50%, in water solution containing cyclodextrin. The control solution only contained 3alpha-hydroxy-5alpha-pregnan-20-one. The amount of 3alpha-hydroxy-5alpha-pregnan-20-one needed to obtain silent second, the anaesthesia criteria, was 21% higher with the combined solution compared to 3alpha-hydroxy-5alpha-pregnan-20-one alone, showing an interaction between 3alpha-hydroxy-5alpha-pregnan-20-one and 3beta-hydroxy-5alpha-pregnan-20-one in vivo. There was no overlap between the effect of the combined solution and control solution of 3alpha-hydroxy-5alpha-pregnan-20-one.
In further studies, performed after the priority date, the present invention was tested in in vivo experiments in which the blocking effect of 3beta-hydroxy-5alpha-pregnan-20-one was assessed by investigating the dosage of 3alpha-hydroxy-5alpha-pregnan-20-one and 3alpha-hydroxy-5beta-pregnan-20-one needed to induce a deep anaesthesia in the presence of increasing amounts of 3beta-hydroxy-5alpha-pregnan-20-one. An EEG-threshold method for deep anaesthesia was used. The method is developed to determine the sensitivity in the central nervous system (CNS) to the depressant drugs, mainly intravenous anaesthetic agents. Drugs are administered into the tail vein by continuous intravenous infusion while an Electro-Encephalo-Gram (EEG) is recorded. The infusion was immediately stopped and infusion time recorded, when the first burst of EEG suppression for one second or more is noted, the threshold criterion for a deep anaethesia, the “silent second” (SS). The appearance of SS is considered as a deeper anaesthesia state than the loss of righting reflex. The threshold dose (mg/kg) is calculated by multiplying the time to obtain SS with the dose rate (mg/kg/min). The threshold doses of the tested drug indicates its relative anaesthetic potency. The threshold doses are also related to CNS excitability. An increase or decrease in CNS excitability can be measured by a change in threshold doses of anesthetics. The dose rates which give the lowest threshold dose is considered as the optimal dose rate. The optimal dose rate and anaesthetic threshold dosage for 3alpha-hydroxy-5alpha-pregnan-20-one and […] at several times and the optimal dose rate is close to 3.0 mg/kg/min for both 3alpha-hydroxy-5alpha-pregnan-20-one and 3alpha-hydroxy-5beta-pregnan-20-one. The anaesthetic threshold dosage is for 3alpha-hydroxy-5alpha-pregnan-20-one between 6.5 to 8.0 mg/kg and for 3alpha-hydroxy-5beta-pregnan-20-one between 9 to 11 mg/kg depending on the age of the rats and the solvent used.
3alpha-hydroxy-5alpha-pregnan-20-one and […] dissolved in 20% cyclodextrin were given to Sprague-Dawley rats in an intravenous infusion at the optimal dose rate. 3beta-hydroxy-5alpha-pregnan-20-one was also dissolved in a 20% cyclodextrin solution and given simultaneously in a dosage 100%, 123% and 143% of the 3alpha-hydroxy-5alpha-pregnan-20-one dosage (n=11) and 70%, 100%, 123% and 143% of the 3alpha-hydroxy-5beta-pregnan-20-one dosage (n=16). […] The correlation between the dosage 3beta-hydroxy-5alpha-pregnan-20-one given and the dosage of 3alpha-hydroxy-5alpha-pregnan-20-one and 3alpha-hydroxy-5beta-pregnan-20-one needed to obtain the criterion of SS is highly significant (FIG. 1 and FIG. 2).

Sprague-Dawley rats [4] = settings: a result found by several groups and described in earlier reports; cited from earlier work

Row | Compound | Blocking of the effect of 3alpha-hydroxy-5alpha-pregnan-20-one on the signal/POPSP ([1]; local application) | Blocking of the effect of 3alpha-hydroxy-5beta-pregnan-20-one on the signal/POPSP ([1]; local application) | Effect as agonist, blocker or antagonist to the sedative steroids [2] | Intercept of regression line (anaesthetic steroid dosage needed for SS at zero 3beta-hydroxy-5alpha-pregnan-20-one) (Sprague-Dawley rats [3]) [mg/kg] | Optimal dose rate (gives the lowest threshold dose) (Sprague-Dawley rats [3]; i.v. infusion) [mg/kg/min] | Effect on the signal transmitted over the synapse / amplitude of the POPSP ([1]; local application) | further results
1 | 3beta-hydroxy-pregnenolone | no blocking effect | no blocking effect | no effect either as an agonist or blocker or antagonist |  |  |  | 
2 | CC(=O)[C@H]1CC[C@H]2[C@@H]3CC[C@H]4C[C@H](O)CC[C@]4(C)[C@H]3CC[C@]12C [3alpha-hydroxy-5alpha-pregnan-20-one, reference compound] |  |  |  | 6.9 | ~3.0 | inhibition of the signal transmitted over the synapse | Reduction of the amplitude of the induced population spike ([1]; local application, FIG. 3): 45%
3 | CC(=O)[C@H]1CC[C@H]2[C@@H]3CC[C@@H]4C[C@H](O)CC[C@]4(C)[C@H]3CC[C@]12C [3alpha-hydroxy-5beta-pregnan-20-one, reference compound] |  |  |  | 9.1 | ~3.0 | inhibition of the signal transmitted over the synapse; also recorded: inhibits the amplitude of the POPSP | 
4 | CC(=O)[C@H]1CC[C@H]2[C@@H]3CC[C@H]4C[C@@H](O)CC[C@]4(C)[C@H]3CC[C@]12C [3beta-hydroxy-5alpha-pregnan-20-one] | can be blocked; also recorded: totally inhibited | can be blocked; also recorded: can inhibit the effect |  |  |  |  | Correlation coefficient r: 3alpha-hydroxy-5alpha-pregnan-20-one dosage needed for SS vs 3beta-hydroxy-5alpha-pregnan-20-one dosage (Sprague-Dawley rats [3]; FIG. 1, p<0.001, df=9): 0.90; Slope of regression line: 3alpha-hydroxy-5alpha-pregnan-20-one dosage needed for SS vs 3beta-hydroxy-5alpha-pregnan-20-one dosage (Sprague-Dawley rats [3]; FIG. 1, slope p<0.001 different from 0): 0.43; Correlation coefficient r: 3alpha-hydroxy-5beta-pregnan-20-one dosage needed for SS vs 3beta-hydroxy-5alpha-pregnan-20-one dosage (Sprague-Dawley rats [3]; FIG. 2, P<0.001, df=14): 0.78; Slope of regression line: 3alpha-hydroxy-5beta-pregnan-20-one dosage needed for SS vs 3beta-hydroxy-5alpha-pregnan-20-one dosage (Sprague-Dawley rats [3]; FIG. 2, slope p<0.001 different from 0): 0.46; Effect on the anaesthetic effect of 3alpha-hydroxy-5beta-pregnan-20-one in vivo (Sprague-Dawley rats [3]; given simultaneously i.v. at 70%, 100%, 123% and 143% of the 3alpha-hydroxy-5beta-pregnan-20-one dosage, dose dependent): can block the effect; also recorded: decreased the anaesthetic potency; Effect on the anaesthetic/CNS depressing effect of 3alpha-hydroxy-5alpha-pregnan-20-one in vivo (Sprague-Dawley rats [3]; given simultaneously i.v. at 100%, 123% and 143% of the 3alpha-hydroxy-5alpha-pregnan-20-one dosage, dose dependent): can block the effect; also recorded: decreased the anaesthetic potency; Amount of 3alpha-hydroxy-5alpha-pregnan-20-one needed to obtain silent second, higher with combined solution compared to 3alpha-hydroxy-5alpha-pregnan-20-one alone (Sprague-Dawley rats [3]; preliminary study, 50/50% with 3alpha-hydroxy-5alpha-pregnan-20-one in cyclodextrin solution, i.v. infusion, male Sprague-Dawley rats): 21%; Effect by itself on signal transmission over the synapse ([1]; alone, up to micromolar range, not different from vehicle): no effect on signal transmission; also recorded: no effect by itself; Blocking of the effect of 3alpha-hydroxy-5alpha-pregnan-20-one when perfused to the whole hippocampus slice ([1]; perfusion of whole slice): same blocking effect; Interaction with Muscimol (an agonist to GABA) on the GABA-A receptor ([1]; together with Muscimol, FIG. 5): does not interact with Muscimol; Effect by itself on CNS activities (Sprague-Dawley rats [4]): no effect on CNS activities
5 | CC(=O)[C@H]1CC[C@H]2[C@@H]3CC[C@@H]4C[C@@H](O)CC[C@]4(C)[C@H]3CC[C@]12C [3beta-hydroxy-5beta-pregnan-20-one] | no blocking effect | no blocking effect | no effect either as a blocker or as an antagonist |  |  |  | 
6 | CC(=O)C1CCC2C3CC=C4CC(OS(=O)(=O)O)CCC4(C)C3CCC12C (stereo not shown) [Pregnenolone sulphate] |  | could neither block |  |  |  |  | Own effect on the signal in high micromolar concentrations ([1]; high micromolar concentrations): excitatory
